In ChEMBL document CHEMBL4020849, “4,6-Diaminopyrimidines as Highly Preferred Troponin I-Interacting Kinase (TNNI3K) Inhibitors” (J Med Chem, 2018):

Columns and labels:
[1] = biological target: T1, Serine/threonine-protein kinase TNNI3K (Homo sapiens, UniProt Q59H18); experiment: Inhibition of 5-({[2-({[3-({4-[(5-hydroxy-2-methylphenyl)amino]-2-pyrimidinyl}amino)phenyl]carbonyl}amino)-ethyl]amino}carbonyl)-2-(6-hydroxy-3-oxo-3H-xanthen-9-yl)benzoic acid binding to human full length His/MBP-fused TNNI3K expressed in baculovirus expression system after 60 mins by fluorescence polarization assay
T1 sequence (Q59H18 whole entry): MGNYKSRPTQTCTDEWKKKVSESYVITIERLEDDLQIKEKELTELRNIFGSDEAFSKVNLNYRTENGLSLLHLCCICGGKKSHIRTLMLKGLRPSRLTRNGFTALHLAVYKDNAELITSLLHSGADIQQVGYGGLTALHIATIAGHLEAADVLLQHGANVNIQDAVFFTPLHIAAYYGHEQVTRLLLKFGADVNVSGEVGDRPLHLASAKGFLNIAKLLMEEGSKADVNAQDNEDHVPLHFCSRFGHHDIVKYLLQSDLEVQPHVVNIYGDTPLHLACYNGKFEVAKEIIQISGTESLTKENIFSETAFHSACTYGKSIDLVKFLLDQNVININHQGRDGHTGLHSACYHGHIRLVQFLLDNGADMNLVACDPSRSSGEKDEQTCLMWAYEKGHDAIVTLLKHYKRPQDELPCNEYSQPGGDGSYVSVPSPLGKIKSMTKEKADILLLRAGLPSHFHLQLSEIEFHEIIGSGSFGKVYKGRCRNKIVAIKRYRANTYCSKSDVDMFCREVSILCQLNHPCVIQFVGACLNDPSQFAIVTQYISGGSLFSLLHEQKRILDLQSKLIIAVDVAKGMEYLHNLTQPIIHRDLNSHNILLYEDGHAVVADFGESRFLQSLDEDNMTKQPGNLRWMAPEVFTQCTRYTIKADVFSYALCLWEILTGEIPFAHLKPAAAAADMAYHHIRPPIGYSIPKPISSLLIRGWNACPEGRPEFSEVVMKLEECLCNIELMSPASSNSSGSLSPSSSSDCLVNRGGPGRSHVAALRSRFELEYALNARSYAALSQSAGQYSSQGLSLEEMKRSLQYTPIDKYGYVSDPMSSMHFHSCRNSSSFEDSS

[2] = Clearance in Sprague-Dawley rat plasma at 1 mg/kg, iv administered as 30 mins infusion by LC-MS/MS analysis; format: ADME, organism-based
Rattus norvegicus = experiment: Dose normalized AUC in Sprague-Dawley rat plasma at 2 mg/kg, po administered as gastric bolus dose by LC-MS/MS analysis; format: ADME, organism-based; conditions: in vivo
[3] = Oral bioavailability in Sprague-Dawley rat plasma at 2 mg/kg administered as gastric bolus dose by LC-MS/MS analysis; format: ADME, organism-based
[4] = biological target: Epidermal growth factor receptor (Homo sapiens, UniProt P00533); experiment: Inhibition of EGFR (unknown origin)
Epidermal growth factor receptor, sequence (P00533 whole entry): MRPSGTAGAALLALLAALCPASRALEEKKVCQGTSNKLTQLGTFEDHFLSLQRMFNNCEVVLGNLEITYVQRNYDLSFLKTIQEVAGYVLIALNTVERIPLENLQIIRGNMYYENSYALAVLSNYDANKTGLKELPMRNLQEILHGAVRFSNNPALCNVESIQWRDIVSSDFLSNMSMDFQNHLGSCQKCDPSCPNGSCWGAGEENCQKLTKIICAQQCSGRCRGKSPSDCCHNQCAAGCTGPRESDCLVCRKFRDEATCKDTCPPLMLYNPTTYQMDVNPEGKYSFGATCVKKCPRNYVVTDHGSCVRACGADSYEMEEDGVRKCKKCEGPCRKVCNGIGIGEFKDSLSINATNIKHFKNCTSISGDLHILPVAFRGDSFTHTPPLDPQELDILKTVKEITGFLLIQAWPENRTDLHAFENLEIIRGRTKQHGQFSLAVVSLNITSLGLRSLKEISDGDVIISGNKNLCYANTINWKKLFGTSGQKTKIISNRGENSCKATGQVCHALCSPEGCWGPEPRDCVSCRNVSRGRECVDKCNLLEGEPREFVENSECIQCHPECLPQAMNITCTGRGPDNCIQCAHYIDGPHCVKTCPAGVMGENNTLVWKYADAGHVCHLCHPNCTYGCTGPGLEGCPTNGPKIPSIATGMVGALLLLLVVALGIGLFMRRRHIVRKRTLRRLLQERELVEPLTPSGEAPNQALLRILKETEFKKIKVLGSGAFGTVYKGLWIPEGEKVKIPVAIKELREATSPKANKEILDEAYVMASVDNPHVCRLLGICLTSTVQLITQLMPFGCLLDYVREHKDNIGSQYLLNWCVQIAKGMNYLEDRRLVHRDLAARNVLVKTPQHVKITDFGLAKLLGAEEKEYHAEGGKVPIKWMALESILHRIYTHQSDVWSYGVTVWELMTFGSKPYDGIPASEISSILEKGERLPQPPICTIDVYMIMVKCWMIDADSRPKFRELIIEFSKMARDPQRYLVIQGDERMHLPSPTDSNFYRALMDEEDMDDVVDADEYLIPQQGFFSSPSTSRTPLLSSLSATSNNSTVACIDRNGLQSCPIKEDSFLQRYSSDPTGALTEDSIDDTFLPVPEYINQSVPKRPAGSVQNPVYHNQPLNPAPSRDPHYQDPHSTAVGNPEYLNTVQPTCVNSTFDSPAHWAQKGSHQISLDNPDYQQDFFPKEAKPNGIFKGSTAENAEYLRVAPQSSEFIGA

[5] = biological target: T1, Serine/threonine-protein kinase TNNI3K; experiment: Inhibition of human Myc-tagged TNNI3K autophosphorylation expressed in HEKMSR2 cells after 30 mins by DELFIA; format: cell-based
[6] = Selectivity index, ratio of IC50 for EGFR (unknown origin) to IC50 for human full length His/MBP-fused TNNI3K expressed in baculovirus expression system
[7] = biological target: Serine/threonine-protein kinase B-raf (Homo sapiens, UniProt P15056); experiment: Inhibition of full length His6-tagged BRAF (unknown origin) expressed in baculovirus expression system assessed as reduction in MEK phosphorylation by measuring ADP production by BRAMA
Serine/threonine-protein kinase B-raf, sequence (P15056 whole entry, the tested form may be a part): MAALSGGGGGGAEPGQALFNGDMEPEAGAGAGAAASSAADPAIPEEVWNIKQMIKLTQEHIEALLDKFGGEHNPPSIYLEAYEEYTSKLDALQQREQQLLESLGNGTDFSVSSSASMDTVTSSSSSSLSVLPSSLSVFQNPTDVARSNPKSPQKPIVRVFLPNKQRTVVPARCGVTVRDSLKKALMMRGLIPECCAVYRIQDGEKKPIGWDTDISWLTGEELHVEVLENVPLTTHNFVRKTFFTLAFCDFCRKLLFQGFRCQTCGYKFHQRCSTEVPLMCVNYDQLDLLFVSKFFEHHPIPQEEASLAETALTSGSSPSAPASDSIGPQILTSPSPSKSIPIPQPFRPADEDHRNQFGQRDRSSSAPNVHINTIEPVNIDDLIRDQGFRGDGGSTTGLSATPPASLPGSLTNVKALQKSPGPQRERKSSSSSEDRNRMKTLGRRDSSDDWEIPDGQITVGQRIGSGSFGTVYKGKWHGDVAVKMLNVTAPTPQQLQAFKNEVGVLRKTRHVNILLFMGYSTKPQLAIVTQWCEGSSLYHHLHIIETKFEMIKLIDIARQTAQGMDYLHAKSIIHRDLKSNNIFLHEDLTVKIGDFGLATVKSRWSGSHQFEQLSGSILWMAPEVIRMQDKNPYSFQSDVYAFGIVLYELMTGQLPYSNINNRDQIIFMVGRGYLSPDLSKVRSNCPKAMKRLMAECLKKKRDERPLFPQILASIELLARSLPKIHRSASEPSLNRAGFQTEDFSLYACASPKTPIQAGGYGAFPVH

[8] = Selectivity index, ratio of IC50 for full length His6-tagged BRAF (unknown origin) expressed in baculovirus expression system to IC50 for human full length His/MBP-fused TNNI3K expressed in baculovirus expression system
[9] = Volume of distribution at steady state in Sprague-Dawley rat plasma at 2 mg/kg, po administered as gastric bolus dose or 1 mg/kg, iv administered as 30 mins infusion by LC-MS/MS analysis; format: ADME, organism-based; conditions: read-out: Vdss
[10] = Half life in Sprague-Dawley rat plasma at 2 mg/kg, po administered as gastric bolus dose or 1 mg/kg, iv administered as 30 mins infusion by LC-MS/MS analysis; format: ADME, organism-based
Blood [11] = experiment: Drug uptake in mouse blood at 100 mg/kg/day administered through diet; format: ADME, organism-based; conditions: in vivo, read-out: Drug uptake
Blood [12] = experiment: Unbound drug level in mouse blood at 100 mg/kg/day administered through diet; format: ADME, organism-based; conditions: in vivo
Heart = experiment: Drug uptake in mouse heart at 100 mg/kg/day administered through diet; format: ADME, organism-based; conditions: in vivo, read-out: Drug uptake
[13] = Fraction unbound in mouse plasma; format: ADME, cell-free

Row | SMILES | IC50 [1] | clearance [2] | AUC/dose (Rattus norvegicus) | bioavailability [3] | also measured
1 | CNS(=O)(=O)c1ccc(OCC(F)(F)F)c(Nc2cc(Nc3ccc(Cl)cc3)ncn2)c1 |  | 20 mL/min/kg | 0.32 kg·h/L | 37% | 
2 | CNS(=O)(=O)c1ccc(F)c(Nc2cc(Nc3ccc(Cl)cc3)ncn2)c1 |  |  | 1.1 kg·h/L |  | 
3 | CNS(=O)(=O)c1ccc(OC(F)(F)F)c(Nc2cc(Nc3ccc(Cl)cc3)ncn2)c1 |  | 16 mL/min/kg | 0.86 kg·h/L | 84% | IC50 [5]: 0.32 µM
4 | CNS(=O)(=O)c1ccc(Cl)c(Nc2cc(Nc3ccc(Cl)cc3)ncn2)c1 |  | 14 mL/min/kg | 0.7 kg·h/L | 55% | 
5 | CNS(=O)(=O)c1ccc(SC)c(Nc2cc(Nc3ccc(Cl)cc3)ncn2)c1 |  | 4.5 mL/min/kg | 2.1 kg·h/L | 52% | 
6 | CNS(=O)(=O)c1ccc(OC)c(Nc2cc(Nc3ccc(Cl)cc3)ncn2)c1 |  | 26 mL/min/kg | 0.69 kg·h/L | 100% | 
7 | CNS(=O)(=O)c1cccc(Nc2ccnc(Nc3cccc(C)c3)c2)c1 | 5 µM |  |  |  | 
8 | CNS(=O)(=O)c1ccc(OC(F)(F)F)c(Nc2cc(Nc3ccc(Cl)cn3)ncn2)c1 |  | 12 mL/min/kg | 0.91 kg·h/L | 67% | IC50 [5]: 0.063 µM
9 | CNS(=O)(=O)c1cccc(Nc2cc(Nc3ccccc3F)ncn2)c1 | 0.63 µM |  |  |  | 
10 | CNS(=O)(=O)c1cccc(Nc2cc(Nc3cccc([N+](=O)[O-])c3)ncn2)c1 |  |  |  |  | IC50 [5]: 0.5 µM; IC50 [4]: 0.004 µM
11 | CNS(=O)(=O)c1cccc(Nc2cc(Nc3ccc(OC)cc3)ncn2)c1 | 0.16 µM |  |  |  | 
12 | CNS(=O)(=O)c1cccc(N(C)c2cc(Nc3cccc(C)c3)ncn2)c1 | 8 µM |  |  |  | IC50 [4]: 2 µM; Ratio IC50 [6]: 0.25
13 | CNS(=O)(=O)c1cccc(Nc2ccnc(Nc3cccc(C)c3)n2)c1 | 0.63 µM |  |  |  | 
14 | CNS(=O)(=O)c1cccc(Nc2cc(Nc3ccc(S(C)(=O)=O)cc3)ncn2)c1 | 0.079 µM |  |  |  | 
15 | CNc1cc(Nc2cccc(S(=O)(=O)NC)c2)ncn1 | 0.8 µM |  |  |  | 
16 | CNS(=O)(=O)c1cccc(Nc2cc(Nc3ccccc3C)ncn2)c1 | 1.3 µM |  |  |  | 
17 | CNS(=O)(=O)c1cccc(Nc2cc(N(C)c3cccc(C)c3)ncn2)c1 | 2 µM |  |  |  | IC50 [4]: 0.02 µM; Ratio IC50 [6]: 0.01
18 | CNS(=O)(=O)c1cccc(Nc2cc(Nc3cccc(Br)c3)ncn2)c1 | 0.079 µM | 53 mL/min/kg | 0.1 kg·h/L | 33% | 
19 | CNS(=O)(=O)c1cccc(Nc2cc(Nc3cccc(S(C)(=O)=O)c3)ncn2)c1 | 0.2 µM |  |  |  | 
20 | CNS(=O)(=O)c1cccc(Nc2cc(Nc3ccc(C(F)(F)F)cc3)ncn2)c1 | 0.079 µM |  |  |  | 
21 | CNS(=O)(=O)c1cccc(Nc2cc(Nc3ccccc3OC)ncn2)c1 | 3.2 µM |  |  |  | 
22 | CNS(=O)(=O)c1cccc(Nc2cc(Nc3ccc(C)cc3)ncn2)c1 | 0.079 µM |  |  |  | 
23 | CNS(=O)(=O)c1cccc(Nc2cc(Nc3cccc(S(=O)(=O)NC)c3)ncn2)c1 | 0.079 µM |  |  |  | IC50 [4]: 1.6 µM; Ratio IC50 [6]: 20

More lines, main results first:

Row | IC50 [1] | clearance [2] | AUC/dose (Rattus norvegicus) | bioavailability [3] | SMILES | also measured
24 | 0.079 µM | 52 mL/min/kg | 0.096 kg·h/L | 30% | CNS(=O)(=O)c1ccc(N(C)C)c(Nc2cc(Nc3ccc(Cl)cc3)ncn2)c1 | 
25 | 0.079 µM | 23 mL/min/kg | 0.71 kg·h/L | 100% | CNS(=O)(=O)c1cccc(Nc2cc(Nc3ccc(Cl)cc3)ncn2)c1 | IC50 [4]: 0.013 µM
26 | 0.02 µM | 16 mL/min/kg | 0.67 kg·h/L | 65% | CNS(=O)(=O)c1cccc(Nc2cc(Nc3ccc(Cl)cn3)ncn2)c1 | IC50 [4]: 0.63 µM; Ratio IC50 [6]: 32
27 | 0.079 µM | 52 mL/min/kg | 0.064 kg·h/L | 20% | CNS(=O)(=O)c1cccc(Nc2cc(Nc3cccc(Cl)c3)ncn2)c1 | 
28 | 0.05 µM |  |  |  | CNS(=O)(=O)c1cccc(Nc2ncnc(Nc3ccc(Cl)cc3)n2)c1 | 
29 | 0.02 µM |  |  |  | CNS(=O)(=O)c1cccc(Nc2ncnc(Nc3cccc(C)c3)n2)c1 | 
30 | 0.063 µM |  |  |  | CNS(=O)(=O)c1cccc(Nc2cc(Nc3ccccc3)ncn2)c1 | 
31 | ≤ 0.01 µM |  | 0.27 kg·h/L |  | CNS(=O)(=O)c1ccc(S(=O)(=O)C(C)C)c(Nc2cc(Nc3ccc(Cl)cn3)ncn2)c1 | IC50 [7]: 0.5 µM; Ratio IC50 [8]: >=50
32 | 0.013 µM |  | 0.76 kg·h/L |  | CNS(=O)(=O)c1ccc(S(C)(=O)=O)c(Nc2cc(Nc3ccc(Cl)cn3)ncn2)c1 | IC50 [7]: 0.2 µM; Ratio IC50 [8]: 15
33 | 0.063 µM |  |  |  | CNS(=O)(=O)c1cccc(Nc2cc(Nc3cccc(OC)c3)ncn2)c1 | 
34 | 0.05 µM |  |  |  | CNS(=O)(=O)c1cccc(Nc2cc(Nc3cccc(C(C)C)c3)ncn2)c1 | IC50 [4]: 0.025 µM; Ratio IC50 [6]: 0.5
35 | ≤ 0.01 µM | 7.4 mL/min/kg | 2.3 kg·h/L | 99% | CNS(=O)(=O)c1ccc(OCC(F)(F)F)c(Nc2cc(Nc3ccc(Cl)cn3)ncn2)c1 | IC50 [7]: 0.013 µM
36 | ≤ 0.01 µM |  | 0.076 kg·h/L |  | CNS(=O)(=O)c1ccc(S(=O)(=O)C(C)(C)C)c(Nc2cc(Nc3ccc(Cl)cn3)ncn2)c1 | IC50 [7]: 2 µM; Ratio IC50 [8]: >=200
37 | ≤ 0.01 µM | 14 mL/min/kg | 0.56 kg·h/L | 48% | CCS(=O)(=O)c1ccc(S(=O)(=O)NC)cc1Nc1cc(Nc2ccc(Cl)cn2)ncn1 | IC50 [5]: 0.008 µM; IC50 [4]: > 25 µM; IC50 [7]: 0.25 µM; Ratio IC50 [8]: >=25; Vd [9]: 1.9 L/kg; half-life [10]: 2.3 h; concentration (Blood [11]): 400 to 1600 nM; Drug uptake(free) (Blood [12]): 14 to 56 nM; concentration (Heart): 1100 nM; fraction unbound [13]: 0.035
38 | 0.032 µM | 86 mL/min/kg | 0.037 kg·h/L | 19% | CNS(=O)(=O)c1cccc(Nc2cc(Nc3cccc(C)c3)ncn2)c1 | IC50 [4]: 0.003 µM; Ratio IC50 [6]: 0.1
39 | 0.016 µM |  |  |  | CNS(=O)(=O)c1cccc(Nc2cc(Nc3ccc(C(F)(F)F)cn3)ncn2)c1 | 
40 | ≤ 0.01 µM | 9.9 mL/min/kg | 1.3 kg·h/L | 75% | CNS(=O)(=O)c1ccc(OC)c(Nc2cc(Nc3ccc(Cl)cn3)ncn2)c1 | IC50 [7]: 0.02 µM; Ratio IC50 [8]: >=2
